What was measured:
[1] = system: hypertensive Sprague-Dawley rats; assay: antihypertensive activity, sample in drinking water of hypertensive rats, tail cuff systolic blood pressure; assay type: in vivo; details: 100 μg/ml in drinking water, after 36 hours; for reduction in systolic blood pressure: tail cuff
Procedure: The crude extract and HPLC fractions prepared according to the procedure of Example 1 (with a preparative-scale (21.4×250 mm) column), were tested for antihypertensive activity by adding the sample to be tested at a concentration of 100 μg/ml to the drinking water of hypertensive Sprague-Dawley rats. After 36 hours, systolic blood pressures were measured with a Harvard tail cuff apparatus attached to a Beckman R511A recorder.

[2] = conversion of brazilin in hot water; assay type: physicochemical

Row | SMILES | reduction in systolic blood pressure [1] | systolic blood pressure after treatment ([1]; brought into the normal range) | stability in hot water [2]
1 | Oc1cc2c(cc1O)C1c3ccc(O)c(O)c3OCC1(O)C2 (single isomer, unassigned) [Peak B, haematoxylin] | ~12% | – | –
2 | Oc1cc2c(cc1O)C13c4ccc(O)c(O)c4OCC1(C2)OC1(O)CC=C2CC4(O)COc5c(ccc(O)c5O)C4=C2C13 (single isomer, unassigned) [peak A] | about 35% | 110-120 mm Hg | –
3 | Oc1ccc2c(c1)OC[C@]1(O)Cc3cc(O)c(O)cc3[C@H]21 [Brazilin, brazilin] | – | – | slowly converted to haematoxylin

— patent US6569891B1, “Antihypertensive compound from Caesalpinia brasiliensis” (Brigham Young University, priority 2002, dated 2003)
